According to patent US12077503B2, “Substituted cyclic amides and their use as herbicides” (FMC CORPORATION, priority 2015, dated 2024):
Read-outs that look alike come from different tables or passages of the source.

Experiments:
Format in all cases: in vivo
[1] = system: giant foxtail (Setaria faberii); test: Test A postemergence; details: Setaria faberi, post-emergence, 240 h, 125 g ai/ha
Method in brief: (§1)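 Preemergence soil spray on seeded pots or post-emergence spray on 1–2 leaf plants, in loam–sand blend. Greenhouse ~10 d. Visual rating 0–100 against untreated plants.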

corn (Zea mays) = test: Test A postemergence; details: Zea mays, post-emergence, 240 h, 125 g ai/ha; for plant injury at 125 g/ha: postemergence, visual injury rating after approximately 10 d, read-out: Corn plant response rating (0 to 100 scale, 0 no effect, 100 complete control)
Method in brief: as §1

[2] = system: ragweed (common ragweed, Ambrosia elatior); test: Test A postemergence; details: Ambrosia artemisiifolia, post-emergence, 240 h, 125 g ai/ha
Method in brief: as §1

[3] = system: barnyardgrass (Echinochloa crus-galli); test: Test A postemergence; details: Echinochloa crus-galli, post-emergence, 240 h, 125 g ai/ha
Method in brief: as §1

[4] = system: blackgrass (Alopecurus myosuroides); test: Test A postemergence; details: Alopecurus myosuroides, post-emergence, 240 h, 125 g ai/ha
Method in brief: as §1

[5] = system: wheat (Triticum aestivum); test: Test A postemergence; details: Triticum aestivum, post-emergence, 240 h, 125 g ai/ha
Method in brief: as §1

[6] = system: Galium (catchweed bedstraw, Galium aparine); test: Test A postemergence; details: Galium, post-emergence, 240 h, 125 g ai/ha
Method in brief: as §1

[7] = system: ryegrass, Italian (Italian ryegrass, Lolium multiflorum); test: Test A postemergence; details: Lolium multiflorum, post-emergence, 240 h, 125 g ai/ha
Method in brief: as §1

Kochia (Kochia scoparia) = test: Test A postemergence; details: Bassia scoparia, post-emergence, 240 h, 125 g ai/ha
Method in brief: as §1

[8] = system: pigweed (Amaranthus retroflexus); test: Test A postemergence; details: Amaranthus retroflexus, post-emergence, 240 h, 125 g ai/ha
Method in brief: as §1

[9] = system: pigweed (Amaranthus retroflexus); test: Test A preemergence; details: Amaranthus retroflexus, pre-emergence, 240 h; for pest or weed control at 125 g/ha: 125 g ai/ha; for pest or weed control at 500 g/ha: 500 g ai/ha
rice (Oryra sativa) = test: Test B flooded paddy test; details: Oryza sativa, Flood, 250 g ai/ha; scale of 0 to 100 where 0 is no effect and 100 is complete control; read-out: Rice plant response rating
Method in brief: (§2)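 Percent control, visually estimated after 13–15 d in the greenhouse on a 0–100 basis, compares treated pots with untreated ones; compound was put into paddy water 3 cm above the soil when plants had two leaves.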

[10] = system: barnyardgrass (Echinochloa crus-galli); test: Test B flooded paddy test; details: Echinochloa crus-galli, Flood, 250 g ai/ha; scale of 0 to 100 where 0 is no effect and 100 is complete control; read-out: Barnyardgrass plant response rating
Method in brief: as §2

[11] = system: sedge, umbrella (small-flower umbrella sedge, Cyperus difformis); test: Test B flooded paddy test; details: Cyperus difformis, Flood, 250 g ai/ha; scale of 0 to 100 where 0 is no effect and 100 is complete control; read-out: Sedge, Umbrella plant response rating
Method in brief: as §2

[12] = system: ducksalad (Heteranthera limosa); test: Test B flooded paddy test; details: Heteranthera limosa, Flood, 250 g ai/ha; scale of 0 to 100 where 0 is no effect and 100 is complete control; read-out: Ducksalad plant response rating
Method in brief: as §2

[13] = postemergence, visual injury rating after approximately 10 d, read-out: Foxtail, Giant plant response rating (0 to 100 scale, 0 no effect, 100 complete control)
[14] = postemergence, visual injury rating after approximately 10 d, read-out: Ragweed plant response rating (0 to 100 scale, 0 no effect, 100 complete control)
[15] = postemergence, visual injury rating after approximately 10 d, read-out: Barnyardgrass plant response rating (0 to 100 scale, 0 no effect, 100 complete control)
[16] = postemergence, visual injury rating after approximately 10 d, read-out: Blackgrass plant response rating (0 to 100 scale, 0 no effect, 100 complete control)
[17] = postemergence, visual injury rating after approximately 10 d, read-out: Wheat plant response rating (0 to 100 scale, 0 no effect, 100 complete control)
[18] = postemergence, visual injury rating after approximately 10 d, read-out: Galium plant response rating (0 to 100 scale, 0 no effect, 100 complete control)
[19] = postemergence, visual injury rating after approximately 10 d, read-out: Ryegrass, Italian plant response rating (0 to 100 scale, 0 no effect, 100 complete control)
[20] = postemergence, visual injury rating after approximately 10 d, read-out: Kochia plant response rating (0 to 100 scale, 0 no effect, 100 complete control)
[21] = postemergence, visual injury rating after approximately 10 d, read-out: Pigweed plant response rating (0 to 100 scale, 0 no effect, 100 complete control)
[22] = preemergence, 0 to 100 scale where 0 is no effect and 100 is complete control, read-out: Pigweed plant response rating
[23] = Preemergence, visual injury vs untreated controls after approximately 10 d, read-out: Pigweed plant response rating (0 to 100 scale where 0 is no effect and 100 is complete control)

| Compound | pest or weed control at 250 g/ha (rice (Oryra sativa)) [%] | pest or weed control at 250 g/ha [10] [%] | pest or weed control at 250 g/ha [11] [%] | pest or weed control at 250 g/ha [12] [%] | pest or weed control at 125 g/ha [1, 13] [%] | plant injury at 125 g/ha (corn (Zea mays)) [%] | pest or weed control at 125 g/ha [2, 14] [%] | pest or weed control at 125 g/ha [3, 15] [%] | pest or weed control at 125 g/ha [4, 16] [%] | plant injury at 125 g/ha [5, 17] [%] | pest or weed control at 125 g/ha [6, 18] [%] | pest or weed control at 125 g/ha [7, 19] [%] | pest or weed control at 125 g/ha (Kochia (Kochia scoparia); [20]) [%] | pest or weed control at 125 g/ha [8, 21] [%] | pest or weed control at 125 g/ha [9, 22] [%] | pest or weed control at 500 g/ha [9, 23] [%] | further results |
| --- | --- | --- | --- | --- | --- | --- | --- | --- | --- | --- | --- | --- | --- | --- | --- | --- | --- |
| CCOc1cccc([C@H]2CN(C)C(=O)[C@@H]2C(=O)Nc2cccc(F)c2F)c1 [Compound 956] | 0 | 70 | 0 | 100 | – | – | – | – | – | – | – | – | – | – | – | – | pest or weed control at 125 g/ha ([1]; Postemergence, visual injury after approximately 10 d, 0 to 100 scale where 0 is no effect and 100 is complete control, read-out: Plant response rating, Foxtail, Giant): 80%; Corn plant response rating (crop injury, 0 = no effect, 100 = complete kill) at 125 g/ha (corn (Zea mays); Postemergence, visual injury after approximately 10 d, 0 to 100 scale where 0 is no effect and 100 is complete control): 50%; pest or weed control at 125 g/ha ([2]; Postemergence, visual injury after approximately 10 d, 0 to 100 scale where 0 is no effect and 100 is complete control, read-out: Plant response rating, Ragweed): 20%; pest or weed control at 125 g/ha ([3]; Postemergence, visual injury after approximately 10 d, 0 to 100 scale where 0 is no effect and 100 is complete control, read-out: Plant response rating, Barnyardgrass): 90%; pest or weed control at 125 g/ha ([4]; Postemergence, visual injury after approximately 10 d, 0 to 100 scale where 0 is no effect and 100 is complete control, read-out: Plant response rating, Blackgrass): 40%; plant injury at 125 g/ha ([5]; Postemergence, visual injury after approximately 10 d, 0 to 100 scale where 0 is no effect and 100 is complete control, read-out: Plant response rating, Wheat): 30%; pest or weed control at 125 g/ha ([6]; Postemergence, visual injury after approximately 10 d, 0 to 100 scale where 0 is no effect and 100 is complete control, read-out: Plant response rating, Galium): 40%; pest or weed control at 125 g/ha ([7]; Postemergence, visual injury after approximately 10 d, 0 to 100 scale where 0 is no effect and 100 is complete control, read-out: Plant response rating, Ryegrass, Italian): 50%; pest or weed control at 125 g/ha (Kochia (Kochia scoparia); Postemergence, visual injury after approximately 10 d, 0 to 100 scale where 0 is no effect and 100 is complete control, read-out: Plant response rating, Kochia): 30%; pest or weed control at 125 g/ha ([8]; Postemergence, visual injury after approximately 10 d, 0 to 100 scale where 0 is no effect and 100 is complete control, read-out: Plant response rating, Pigweed): 0%; pest or weed control at 125 g/ha ([9]; Preemergence, visual injury rating after approximately 10 d, read-out: Pigweed plant response rating (0 to 100 scale, 0 is no effect, 100 is complete control)): 0%; pest or weed control at 500 g/ha ([9]; preemergence, visual injury rating about 10 d after treatment, 0 to 100 scale (0 no effect, 100 complete control), read-out: Pigweed plant response rating): 0% |
| CCOc1ccc([C@H]2CN(C)C(=O)[C@@H]2C(=O)Nc2cccc(F)c2F)cc1 [Compound 904] | 0 | 0 | 0 | 0 | 80 | 0 | 0 | 80 | 30 | 0 | 30 | 0 | 30 | 0 | 0 | 50 | – |
| Cc1c(F)ccc([C@H]2CN(C)C(=O)[C@@H]2C(=O)Nc2ccc(F)cc2F)c1F [Compound 835] | 20 | 50 | 0 | 70 | 90 | 30 | 0 | 90 | 40 | 0 | 30 | 50 | 0 | 20 | 20 | 40 | – |
| Cc1c(F)ccc([C@H]2CNC(=O)[C@@H]2C(=O)Nc2ccc(F)c(F)c2F)c1F [Compound 830] | 0 | 20 | 0 | 100 | 70 | 0 | 0 | 90 | 20 | 0 | 30 | 20 | 30 | 0 | 20 | 40 | – |
